Measured values as given in patent publication US11071735B2, “Treatment of inflammatory conditions and autoimmune diseases with glucose uptake inhibitors” (Kadmon Corporation, LLC, priority 2017, dated 2021).

Key:
Type in all cases: cell-based
GLUT1 = target: T1, GLUT1 (Homo sapiens, UniProt P11166); test: glycolysis assay in DLD1 WT cells (rely on GLUT1)
T1 construct: endogenous in cells; host or cells: DLD1 WT cancer cells
T1 sequence (P11166 1-492): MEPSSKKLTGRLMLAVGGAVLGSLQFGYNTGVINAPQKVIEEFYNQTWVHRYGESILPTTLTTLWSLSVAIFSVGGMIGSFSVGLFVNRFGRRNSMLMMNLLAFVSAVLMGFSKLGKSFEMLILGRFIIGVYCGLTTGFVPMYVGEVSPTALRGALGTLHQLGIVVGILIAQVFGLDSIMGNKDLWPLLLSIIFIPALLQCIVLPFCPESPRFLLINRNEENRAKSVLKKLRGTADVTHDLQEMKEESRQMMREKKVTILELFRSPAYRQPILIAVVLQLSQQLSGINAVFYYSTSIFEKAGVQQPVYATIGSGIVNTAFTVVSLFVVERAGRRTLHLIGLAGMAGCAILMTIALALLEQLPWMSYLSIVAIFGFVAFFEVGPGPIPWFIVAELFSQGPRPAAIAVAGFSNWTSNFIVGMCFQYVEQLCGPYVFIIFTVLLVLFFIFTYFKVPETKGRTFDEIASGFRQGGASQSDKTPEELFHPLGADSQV
How it was run: (§1)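 Cells […] exposed for 1 h to inhibitor plus 10 μM oligomycin to block mitochondrial ATP; remaining glycolytic ATP read by CellTiter-Glo luminescence. IC50 derived from dose-response curves.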

[1] = test system: activated human CD4+ T cells; test: one-hour glycolysis assay in activated human CD4 T cells; conditions: human CD4 T cells activated 24 hours, one hour treatment plus oligomycin
Procedure: In FIG. 2A, human CD4 positive T cells were activated for 24 hours prior to a one hour treatment with the indicated glucose uptake inhibitors combined with 10 μM oligomycin. In FIG. 2B, human CD4 T cells were activated for 48 hours in the presence of the glucose uptake inhibitors. IL-17 and IL-2 secreted into the supernatant was measured by ELISA (R&D systems). Proliferation was measured by Cell Titer Glo (Promega). FIG. 2C lists the IC50 values (μM) for the glucose uptake inhibitors against activated T cell glycolysis, IL-17 secretion and proliferation. […] In FIG. 3A, human CD4 positive T cells were activated for 24 hours prior to a one hour treatment with Bay876 combined with 1 μM oligomycin. In FIG. 3B, human CD4 T cells were activated for 48 hours in the presence of Bay876. L-17 secreted into the supernatant was measured by ELISA (R&D systems). Proliferation was measured by Cell Titer Glo (Promega). […] At this time, secreted IL-17, IL-2 and relative cell number were measured (FIG. 2B, right panel). […] Cells were exposed to the combination of 10 μM Oligomycin (to block mitochondrial-derived ATP) and the glucose uptake inhibitors disclosed herein for one-hour, after which glycolytically-derived ATP was measured with the Cell Titer-Glo assay kit (Promega). […] IL-17 levels were measured by ELISA (R&D systems, Human IL-17 Quantikine ELISA kit). Proliferation was measured by Cell Titer Glo (Promega). […]

GLUT3 = target: T2, GLUT3 (Homo sapiens, UniProt P11169); test: glycolysis assay in DLD1 GLUT1−/− cells (rely on GLUT3); conditions: DLD1-KO (GLUT1−/−) cells; 10 μM oligomycin, one hour
T2 construct: endogenous in cells; host or cells: DLD1 GLUT1−/− (knock-out) cancer cells
T2 sequence (P11169 1-496): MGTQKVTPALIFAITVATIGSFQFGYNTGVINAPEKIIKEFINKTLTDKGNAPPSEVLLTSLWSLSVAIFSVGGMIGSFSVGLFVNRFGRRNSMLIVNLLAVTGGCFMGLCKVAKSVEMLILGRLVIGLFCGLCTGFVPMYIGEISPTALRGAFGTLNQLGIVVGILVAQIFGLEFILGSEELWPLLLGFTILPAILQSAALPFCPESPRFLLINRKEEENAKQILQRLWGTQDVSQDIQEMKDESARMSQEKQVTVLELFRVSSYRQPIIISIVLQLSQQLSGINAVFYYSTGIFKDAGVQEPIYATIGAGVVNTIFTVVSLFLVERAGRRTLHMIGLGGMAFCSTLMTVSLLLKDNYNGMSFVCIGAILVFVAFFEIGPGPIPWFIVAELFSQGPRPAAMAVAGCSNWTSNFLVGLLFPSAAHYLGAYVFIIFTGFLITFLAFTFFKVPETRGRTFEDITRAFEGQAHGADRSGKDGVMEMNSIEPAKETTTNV
How it was run: as §1

GLUT = test: glycolysis assay (oligomycin + Cell Titer-Glo ATP readout) in HT1080 cells; conditions: 10 μM oligomycin, one hour, glycolytically-derived ATP
How it was run: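 HT1080 cells exposed for one hour to compound plus 10 μM oligomycin to block mitochondrial ATP, so remaining ATP reflects glycolysis. Glycolytic ATP read by CellTiter-Glo luminescence; IC50 derived from dose-response curves.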

Structure (SMILES)	GLUT selectivity (inhibition of glycolysis) (GLUT1; DLD1 WT versus DLD1 GLUT1−/− cells)	glycolysis in activated T cells [1]	IC50 (GLUT3) [nM]	IC50 (GLUT1; DLD1-WT cells, 10 μM oligomycin, one hour) [nM]	IC50 (GLUT) [nM]
Cc1c(NC(=O)c2cc(C(N)=O)nc3cc(F)ccc23)c(C(F)(F)F)nn1Cc1ccc(C#N)cc1 [Bay876]	selective for GLUT1	neither inhibited glycolysis			
CC[C@@H](C)NC(=O)COc1cccc(-c2nc(Nc3ccc(-c4cn[nH]c4)cc3)c3ccc(F)cc3n2)c1 [Ex. 55, (R)-2-(3-(4-((4-(1H-pyrazol-4-yl)phenyl)amino)-7-fluoroquinazolin-2-yl)phenoxy)-N-(sec-butyl)acetamide]			238	192	190
